Data taken from patent US20080306007A1, “AGENTS FOR PROPHYLAXIS OR TREATMENT OF NEUROLOGICAL RELATED DISEASES AND CONDITIONS” (Newcastle Innovation Limited, priority 2007, published 2008).

Key:
[1] = target: T1, dynamin I-endophilin I interaction (Rattus norvegicus, UniProt O35179); test: Elution of endophilin I from immunoprecipitated complex by peptide; format: binding; conditions: immunoprecipitated complex incubated with peptide
T1 construct: Syndapin I or dynamin I were immunoprecipitated from nerve terminals; from tissue; host or cells: rat brain crude (P2) synaptosomes
T1 sequence (O35179 whole entry): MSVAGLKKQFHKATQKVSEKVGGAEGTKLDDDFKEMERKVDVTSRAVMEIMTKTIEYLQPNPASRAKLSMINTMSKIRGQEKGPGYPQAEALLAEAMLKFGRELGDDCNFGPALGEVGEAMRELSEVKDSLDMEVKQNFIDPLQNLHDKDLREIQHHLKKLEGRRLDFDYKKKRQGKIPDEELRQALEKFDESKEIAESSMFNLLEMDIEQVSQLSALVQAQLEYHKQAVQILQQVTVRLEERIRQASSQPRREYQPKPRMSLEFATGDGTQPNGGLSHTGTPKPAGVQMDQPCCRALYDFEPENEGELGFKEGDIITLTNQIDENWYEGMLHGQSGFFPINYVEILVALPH
Protocol: (§1) To determine whether the phospho-box sequence might account for syndapin I recruitment to dynamin I, the ability of a DynI769-784AA peptide (FIG. 5a) to disrupt their interaction was tested. Syndapin I or dynamin I were immunoprecipitated from nerve terminals and the individual protein complexes were incubated with DynI769-784AA (SEQ ID No. 8) peptide (see below). Their interaction in both cases was reduced by the peptide, as indicated by the specific release of either binding partner from the bead-bound complex (FIG. 4c). No elution of endophilin I (FIG. 4c) or amphiphysin I (data not shown) was detected, highlighting the specificity of the interaction.
(§2) Crude (P2) synaptosomes were prepared from rat brain and lysed as described in Example 1.1.3. Synaptosome lysates were incubated with 5 μg of anti-syndapin I or […] pre-bound to protein G-sepharose (Roche) for 3 h at 4° C. Beads were washed with ice-cold PBS, eluted in SDS-PAGE sample buffer and blotted with anti-syndapin I, anti-endophilin I and anti-dynamin I antibodies.

[2] = target: T2, amphiphysin I (Rattus norvegicus, UniProt O08838); test: Elution of amphiphysin I from immunoprecipitated complex by peptide; format: binding; conditions: data not shown
T2 construct: Syndapin I or dynamin I were immunoprecipitated from nerve terminals; from tissue; host or cells: rat brain crude (P2) synaptosomes
T2 sequence (O08838 1-683): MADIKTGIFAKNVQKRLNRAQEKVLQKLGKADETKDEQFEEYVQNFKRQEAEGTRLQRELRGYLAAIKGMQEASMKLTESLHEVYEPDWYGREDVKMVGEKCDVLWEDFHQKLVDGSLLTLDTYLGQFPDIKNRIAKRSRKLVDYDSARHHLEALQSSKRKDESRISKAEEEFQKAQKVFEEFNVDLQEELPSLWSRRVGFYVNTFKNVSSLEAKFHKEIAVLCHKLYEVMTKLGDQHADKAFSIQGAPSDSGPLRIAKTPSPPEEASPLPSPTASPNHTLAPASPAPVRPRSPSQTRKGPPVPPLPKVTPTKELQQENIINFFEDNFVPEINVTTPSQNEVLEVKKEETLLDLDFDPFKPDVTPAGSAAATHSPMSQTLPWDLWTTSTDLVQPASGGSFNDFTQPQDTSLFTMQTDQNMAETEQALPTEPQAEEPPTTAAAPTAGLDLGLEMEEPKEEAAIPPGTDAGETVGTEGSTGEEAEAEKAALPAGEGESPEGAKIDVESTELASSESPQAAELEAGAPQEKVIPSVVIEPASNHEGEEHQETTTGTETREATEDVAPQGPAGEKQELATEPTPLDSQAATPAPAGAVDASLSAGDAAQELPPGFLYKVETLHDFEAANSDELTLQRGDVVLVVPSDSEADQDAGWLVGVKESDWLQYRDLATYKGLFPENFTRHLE
Protocol: as §1, §2

[3] = test system: synaptosomes (synaptic vesicle turnover); test: SV turnover assay (FM2-10 loading/unloading) in synaptosomes; format: cell-based, rat
Protocol: (§3) In all SV recycling studies synaptosomes were prepared from rat cerebral cortex by centrifugation on discontinuous percoll gradients (Dunkley et al. 1986). The glutamate release assay was performed as described before (Cousin and Robinson 2000a). Data is presented as Ca^2+-dependent glutamate release, calculated as the difference between release in plus and minus Ca^2+ solutions. Penetratin peptides (Genemed Synthesis) were preincubated with the synaptosomes for 30 min before stimulation and had no effect on Ca^2+-independent release of glutamate.
Loading of FM2-10 (Molecular Probes) into recycling synaptosomal SVs was measured as previously described. Data is presented as Ca^2+-dependent FM2-10 unloading, which is the difference between release after loading in plus and minus Ca^2+ solutions. Where indicated, synaptosomes were preincubated with penetratin peptide for 30 min prior to stimulation of FM2-10 loading. […] The same assay was used to monitor the effect of penetratin peptide on SV exocytosis. However, in this instance, the synaptosomes were loaded with FM2-10 in plus Ca^2+ Krebs-like solution and, where indicated, were preincubated with penetratin peptide for 30 min prior to stimulation of FM2-10 unloading. Data is presented as Ca^2+-dependent FM2-10 unloading. The SV internalisation assay was performed as previously described.
SVE in synaptosomes was measured to determine whether the phosphorylation sites in dynamin I play a direct role in SVE. Since isolated nerve terminals cannot be transfected with DNA, a membrane-permeable peptide strategy was employed. Mimetic peptides (DynI769-784AA (SEQ ID No. 8) and DynI769-784EE (SEQ ID No. 9)) were designed corresponding to the amino acid sequence of the dynamin I phospho-box (FIG. 5a) and were tagged with a penetratin heptapeptide RRMKWKK (SEQ ID No. 12) to facilitate their delivery into synaptosomes. Briefly, synaptosomes were preincubated in the presence or absence of either penetratin peptide (250 μM) prior to FM2-10 loading stimulated by 30 mM KCl. Accumulated FM2-10 was unloaded by another KCl stimulus (indicated by the solid bar). […] If the phosphorylation-regulated syndapin I interaction itself is essential for SVE, the penetratin-linked peptides may inhibit the process. […] The DynI769-784AA peptide (250 μM) inhibited turnover by more than 40% (57.1±2.1% of control), compared to less than 20% with the DynI769-784EE peptide (250 μM, 81.1±2.4% of control).

[4] = test system: synaptosomes (glutamate release); test: 4-AP evoked glutamate release (repetitive stimulation) in synaptosomes; format: cell-based, rat; conditions: 4-AP 1 mM
Protocol: as §3
Selective inhibition of SVE by the phospho-box peptide should produce a rundown or fatigue of glutamate release after repeated stimuli, since the supply of SVs will progressively decline. To produce repetitive stimulation in synaptosomes the K^+ channel blocker 4-aminopyridine (4-AP) was used. This produces a tetrodotoxin-sensitive repetitive firing that mimics in vivo stimulation. It has previously been reported that 4-AP evokes continual SV recycling for at least 15 minutes in synaptosomes. […] The inset is also zoomed on the first 3 min from 4-AP addition (which was at 60 s) to highlight the lack of effect during the first 45s.

[5] = test system: U2OS cells; test: Transferrin (Tfn) endocytosis (RME) in U2OS cells; format: cell-based; conditions: 15 min peptide preincubation at various concentrations, Tfn 15 min at 37° C.
Protocol: Briefly, non-neuronal U2OS cells were preincubated with vehicle only or each peptide at various concentrations for 15 min. Cells were then incubated with Tfn for 15 min at 37° C., acid washed, fixed and internalized Tfn was detected by fluorescence microscopy. Quantitative analysis of endocytosis in the presence of different concentrations of the peptides is shown as mean fluorescence as a percent of fluorescence in control cells. The results shown in FIG. 11 are representative of 2 independent experiments. Endocytosis in control cells (no peptide) is expressed as 100%.

Substance: DynI769-784AA: Dynamin I phospho-box mimetic peptide (residues 769-784), AA mutant, tagged with penetratin heptapeptide RRMKWKK (RRMKWKKPAGRRAPTSAPTPQRR; listed as Rattus norvegicus)
- elution of endophilin I from complex [1]: No elution
- elution of amphiphysin I from complex [2]: No elution
- inhibition of SV turnover ([3]; peptide 250 μM): more than 40%
- SV turnover ([3]; peptide 250 μM, 30 min preincubation, FM2-10 loading with 30 mM KCl): 57.1±2.1 % of control
- retrieval efficiency (SV turnover/exocytosis) ([3]; using data from either exocytosis assay, value below one = selective SVE inhibition): robust inhibition
- effect on the first 45 sec of 4-AP evoked exocytosis ([4]; first 45 sec): without effect
- effect on 4-AP evoked glutamate release with continued stimulation ([4]; repetitive stimulation): activity-dependent depression of release that increased with continued stimulation
- endocytosis of transferrin (Tfn), RME [5]: without effect
